Where two headings read alike, the source gives them in different places. Where a SMILES comes first, the peptide text is derived from it.
Columns and labels:
Assay type in all cases: cell-based
[1] = system: Acinetobacter baumannii ATCC 17978; assay: Broth microdilution MIC; conditions: ATCC 17978, standard strain
Protocol: (§1) Determination of Minimal Inhibitory Concentration (MIC)
(§2) In order to test the inhibitory effect of the antimicrobial peptides of the present disclosure, broth microdilution test was conducted to determine the minimal inhibition concentration (MIC) of the antimicrobial peptides against bacteria. The MIC represents the minimal concentration of the peptide which has the ability to inhibit bacteria growth completely.
(§3) Acinetobacter baumannii strains used in the examples in the conduction of the minimal inhibitory concentration and the minimum bactericidal concentration tests are shown in Table 2.

[2] = system: Acinetobacter baumannii ATCC 19606; assay: Broth microdilution MIC; conditions: ATCC 19606, standard strain
Protocol: as §1, §2, §3

[3] = system: Acinetobacter baumannii 39181
Protocol: as §1, §2, §3

[4] = system: Acinetobacter baumannii 39400
Protocol: as §1, §2, §3

[5] = system: Acinetobacter baumannii 44820
Protocol: as §1, §2, §3

[6] = system: Acinetobacter baumannii ATCC 17978CR; conditions: colistin-resistant
Protocol: as §1, §2, §3

[7] = system: Acinetobacter baumannii ATCC 19606CR; conditions: colistin-resistant
Protocol: as §1, §2, §3

[8] = system: Acinetobacter baumannii BCRC 80276
Protocol: as §1, §2, §3

[9] = system: Acinetobacter baumannii ATCC 17978; assay: Minimum bactericidal concentration (MBC) determination; conditions: ATCC 17978, standard strain
Protocol: (§4) Determination of Minimum Bactericidal Concentration (MBC)
(§5) In order to find out the minimum bactericidal concentration of the antimicrobial peptides of the present disclosure against bacteria, the surface of a suitable culture medium was covered by 100 μL of antimicrobial peptides at the minimal inhibitory concentration determined above with glass beads, then the medium was cultured at 37° C. for 24 hours, thereafter, and observation was conducted for 3 days. When no colony grew, it is the indication that the bacteria have been killed.
as §3

[10] = system: Acinetobacter baumannii ATCC 19606; assay: as above; conditions: ATCC 19606, standard strain
Protocol: as §4, §5, §3

[11] = system: Acinetobacter baumannii 39181; remark: listed apart in the source
Protocol: as §4, §5, §3

[12] = system: Acinetobacter baumannii 39400; remark: listed apart in the source
Protocol: as §4, §5, §3

[13] = system: Acinetobacter baumannii 44820; remark: listed apart in the source
Protocol: as §4, §5, §3

[14] = system: Acinetobacter baumannii ATCC 17978CR; conditions: colistin-resistant; remark: listed apart in the source
Protocol: as §4, §5, §3

[15] = system: Acinetobacter baumannii ATCC 19606CR; conditions: colistin-resistant; remark: listed apart in the source
Protocol: as §4, §5, §3

[16] = system: Acinetobacter baumannii BCRC 80276; remark: listed apart in the source
Protocol: as §4, §5, §3

[17] = BCRC 80276, multidrug-resistant

**Q.** What does the source list for `CC[C@H](C)[C@H](NC(=O)[C@H](C)NC(=O)[C@H](CCCCN)NC(=O)[C@H](CCC(N)=O)NC(=O)[C@@H](NC(=O)[C@H](C)NC(=O)[C@@H](NC(=O)[C@H](CC(C)C)NC(=O)[C@H](CCCCN)NC(=O)[C@H](CCC(=O)O)NC(=O)[C@H](CC(C)C)NC(=O)[C@H](C)NC(=O)[C@H](CCCCN)NC(=O)[C@@H](N)CCC(=O)O)[C@@H](C)CC)[C@@H](C)CC)C(=O)N[C@@H](CCCCN)C(=O)NCC(=O)N[C@@H](CCSC)C(=O)N[C@@H](CC(C)C)C(=O)N[C@@H](CC(N)=O)C(=O)NCC(=O)N[C@@H](Cc1c[nH]c2ccccc12)C(=O)N[C@@H](Cc1ccccc1)C(=O)N[C@H](C(=O)NCC(=O)N[C@H](C(=O)N[C@@H](Cc1ccccc1)C(=O)N[C@@H](CCCNC(=N)N)C(=O)N[C@@H](CCCNC(=N)N)C(=O)N[C@@H](CCCCN)C(=O)N[C@@H](CCCNC(=N)N)C(=O)O)C(C)C)[C@@H](C)O` [LysAB2 113-145 G1] (H-EKALEKLIAIQKAIKGMLNGWFTGVFRRKR-OH; N-terminus and C-terminus assumed)?
**A.** Minimal Inhibitory Concentration (MIC) [1]: 8 µM; Minimal Inhibitory Concentration (MIC) [2]: 8 µM; Minimal Inhibitory Concentration (MIC) ([3]; 39181, multidrug-resistant): 8 µM; Minimal Inhibitory Concentration (MIC) ([4]; 39400, multidrug-resistant): 8 µM; Minimal Inhibitory Concentration (MIC) ([5]; 44820, multidrug-resistant): 8 µM; Minimal Inhibitory Concentration (MIC) [6]: 16 µM; Minimal Inhibitory Concentration (MIC) [7]: 16 µM; Minimal Inhibitory Concentration (MIC) [8, 17]: 8 µM; Minimum Bactericidal Concentration (MBC) [9]: 8 µM; Minimum Bactericidal Concentration (MBC) [10]: 8 µM; Minimum Bactericidal Concentration (MBC) ([11]; 39181, multidrug-resistant): 8 µM; Minimum Bactericidal Concentration (MBC) ([12]; 39400, multidrug-resistant): 8 µM; Minimum Bactericidal Concentration (MBC) ([13]; 44820, multidrug-resistant): 8 µM; Minimum Bactericidal Concentration (MBC) [14]: 16 µM; Minimum Bactericidal Concentration (MBC) [15]: 16 µM; Minimum Bactericidal Concentration (MBC) [16, 17]: 8 µM

**Q.** Which results are given for `CC[C@H](C)[C@H](NC(=O)[C@H](C)NC(=O)[C@H](CCCCN)NC(=O)[C@H](CCC(N)=O)NC(=O)[C@@H](NC(=O)[C@H](C)NC(=O)[C@@H](NC(=O)[C@H](CC(C)C)NC(=O)[C@H](CCCCN)NC(=O)[C@H](CCC(=O)O)NC(=O)[C@H](CC(C)C)NC(=O)[C@H](C)NC(=O)[C@H](CCCCN)NC(=O)[C@@H](N)CCC(=O)O)[C@@H](C)CC)[C@@H](C)CC)C(=O)N[C@@H](CCCCN)C(=O)NCC(=O)N[C@@H](CCSC)C(=O)N[C@@H](CC(C)C)C(=O)N[C@@H](C)C(=O)NCC(=O)N[C@@H](Cc1c[nH]c2ccccc12)C(=O)N[C@@H](Cc1ccccc1)C(=O)N[C@H](C(=O)NCC(=O)N[C@H](C(=O)N[C@@H](C)C(=O)N[C@@H](CCCNC(=N)N)C(=O)N[C@@H](CCCNC(=N)N)C(=O)N[C@@H](CCCCN)C(=O)N[C@@H](CCCNC(=N)N)C(=O)O)C(C)C)[C@@H](C)O` [LysAB2 113-145 G3] (H-EKALEKLIAIQKAIKGMLAGWFTGVARRKR-OH)?
**A.** Minimal Inhibitory Concentration (MIC) [1]: 16 µM; Minimal Inhibitory Concentration (MIC) [2]: 16 µM; Minimal Inhibitory Concentration (MIC) [3]; 39181: 16 µM; Minimal Inhibitory Concentration (MIC) [4]; 39400: 16 µM; Minimal Inhibitory Concentration (MIC) [5]; 44820: 16 µM; Minimal Inhibitory Concentration (MIC) [6]: 16 µM; Minimal Inhibitory Concentration (MIC) [7]: 16 µM; Minimal Inhibitory Concentration (MIC) ([8]; BCRC 80276): 16 µM; Minimum Bactericidal Concentration (MBC) [9]: 16 µM; Minimum Bactericidal Concentration (MBC) [10]: 16 µM; Minimum Bactericidal Concentration (MBC) [11]; 39181: 16 µM; Minimum Bactericidal Concentration (MBC) [12]; 39400: 16 µM; Minimum Bactericidal Concentration (MBC) [13]; 44820: 16 µM; Minimum Bactericidal Concentration (MBC) [14]: 32 µM; Minimum Bactericidal Concentration (MBC) [15]: 32 µM; Minimum Bactericidal Concentration (MBC) ([16]; BCRC 80276): 16 µM

From patent US20170064965A1, “ANTIMICROBIAL PEPTIDES DERIVED FROM PHAGE OF ACINETOBACTER BAUMANNII AND USE THEREOF” (Hualien Tzu Chi Hospital, Buddhist Tzu Chi Medical …, priority 2015, published 2017)
